From patent publication US20230321179A1, “N-ACYL AMINO ACID PRODUCTS AND USES” (THE REGENTS OF THE UNIVERSITY OF MICHIGAN, priority 2020, published 2023) come the findings set out here.

One experiment has as its target T1, PPARα (Homo sapiens, UniProt Q07869).
T1 construct: expressed in transfected cells; host or cells: COS-1
T1 sequence (Q07869 1-468): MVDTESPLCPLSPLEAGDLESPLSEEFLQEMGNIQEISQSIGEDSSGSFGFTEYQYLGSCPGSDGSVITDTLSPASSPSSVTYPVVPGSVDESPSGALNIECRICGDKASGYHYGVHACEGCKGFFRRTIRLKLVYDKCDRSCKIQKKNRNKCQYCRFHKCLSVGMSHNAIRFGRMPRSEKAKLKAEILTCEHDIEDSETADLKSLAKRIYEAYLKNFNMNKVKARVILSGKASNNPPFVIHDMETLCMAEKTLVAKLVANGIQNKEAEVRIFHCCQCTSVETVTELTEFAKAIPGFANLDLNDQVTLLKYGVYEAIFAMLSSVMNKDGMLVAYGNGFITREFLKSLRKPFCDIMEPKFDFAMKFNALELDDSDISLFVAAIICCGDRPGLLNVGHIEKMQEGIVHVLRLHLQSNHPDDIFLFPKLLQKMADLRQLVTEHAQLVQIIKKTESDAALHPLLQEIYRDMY
The experiment can be described thus: PPREx3-TK-luciferase PPARα reporter assay in COS-1 cells. The format is cell-based. Conditions: 24 h. As to the method: COS-1 and HepG2 cells were obtained from the American Type Culture Collection (ATCC) and cultured at 37° C. and 5% CO2 in Dulbecco’s Modified Eagle Medium (DMEM, Gibco) supplemented with 10% fetal bovine serum (FBS, Sigma-Aldrich) and 1% Penicillin-Streptomycin (Pen-Strep, Gibco). For luciferase assays, COS-1 cells were seeded in 96-well plates. At 60-70% confluence, transfection was performed using Lipofectamine 3000 (Invitrogen) with PPREx3-TK-luciferase, PPARα and Renilla constructs at 80 ng, 10 ng and 10 ng, respectively. 24 h post-transfection, cells were serum-starved and treated with 10 µM of the PPARα activator WY-14643 (Cayman Chemicals, 70730), 1 mM of glycine or tripepetide glycine-glycine-leucine or 10 µM of N-acyl amino acids for 24 h (Cayman Chemicals, C20:4-Gly 90051, C18:1-Leu 20064). Luciferase activity was assessed using the Dual-Luciferase Reporter Assay System (Promega) and normalized by Renilla.
On the technique in general: A reporter such as luciferase makes a cellular process visible.

Experiment [1] has as its system HepG2 cells. The experiment can be described thus: Seahorse oxygen consumption rate and dependency on FAO. The format is cell-based. To be noted: 10 µM acute stimulation, increase attenuated by etomoxir 6 µM. As to the method: HepG2 cells were obtained from the American Type Culture Collection (ATCC) and cultured at 37° C. and 5% CO2 in Dulbecco’s Modified Eagle Medium (DMEM, Gibco) supplemented with 10% fetal bovine serum (FBS, Sigma-Aldrich) and 1% Penicillin-Streptomycin (Pen-Strep, Gibco). Oxygen consumption rate (OCR) and dependency on FAO were assessed using a Seahorse XFe96 Analyzer (Agilent). HepG2 cells were seeded at 2.5x10^4 cells/well in XF96 cell culture microplates (Agilent). The next day, XFe96 sensor cartridges were hydrated in accordance with the manufacturer’s instructions. Cells were treated (port 1) with N-acyl amino acids (10 µM) or vehicle (EtOH), Etomoxir (Agilent, 6 µM, port 2) and finally with rotenone+antimycin A (R/A, Agilent, port 3).

For experiment [2], the system named is HepG2 cells. The experiment can be described thus: TG biosynthesis and hydrolysis by [3H]-acetate incorporation. The format is cell-based. To be noted: 10 µM; for rate of TG biosynthesis: 3 h [3H]-acetate; for rate of TG hydrolysis: additional 3 h after [3H]-acetate withdrawal. As to the method:
For the TG biosynthesis and hydrolysis assays, HepG2 cells were seeded in 12-well plates. At 60-70% confluence, cells were treated with N-acyl amino acids (10 µM) or vehicle (EtOH) in serum-free medium supplemented with 0.1% BSA and stimulated for 3 h at 37° C. with [3H]-acetate (3.3 µCi/ml, ART 0202, American Radiolabeled Chemicals) to assess the rate TG biosynthesis. In some wells, the cells were washed twice with PBS ([3H]-acetate withdrawal) and incubated for additional 3 h with N-acyl amino acids (10 µM) or vehicle (EtOH) in serum-free medium supplemented with 0.1% BSA to assess the rate TG hydrolysis. At the end of the above incubation periods, cells were washed with twice with PBS. Cellular lipids were extracted using hexane (≥99%, Sigma-Aldrich 32293) and isopropanol (≥99.5%, Fisher Scientific A426-4) at a 3:2 ratio (v:v), and the hexane phase was left to evaporate for 48 h. Next, lipids were separated by thin layer chromatography (TLC) on silica gel plates (60 F254, M1057150001, Fisher Scientific) and developed in hexane / ether (≥99.9%, 309966, Sigma-Alrich) / acetic acid (≥99.7%, A38-212, Fisher Scientific) at a 130:30:1.5 ratio (v:v:v). TG spots were visualized by iodine vapor (using an appropriate standard for identification) and [3H]-labels were counted by a Tri-Carb 2810TR liquid scintillation analyzer (PerkinElmer). Data were normalized to protein levels and presented as count per minutes (CPM)/mg cell protein.

Experiment [3] deals with C57BL/6J mice fed NASH diet. The experiment can be described thus: NASH diet mouse model, oral treatment with tripeptide glycine-glycine-leucine, glycine or leucine. It counts as in vivo. As to the method:
To explore the therapeutic potential of […] against NASH, an experimental approach to model advanced NAFLD was used. As described, C57BL/6J mice were fed a high-fat, high-fructose and high-cholesterol diet (NASH diet) for 12 weeks. After confirming NASH, the mice were randomized to receive orally […] at 0.125 or 0.5 mg/g/day, equivalent amounts of leucine, glycine or H2O for 12 additional weeks on NASH diet. Mice fed low-fat control diet (CD) and administered H2O served as control. Animal procedures were approved (PRO00008239) by the Institutional Animal Care & Use Committee of the University of Michigan (U-M) and performed in accordance with the institutional guidelines. Seven weeks-old male C57BL/were from Jackson Laboratories. After one week of acclimation, mice were fed ad libitum either low-fat control diet (CD, Research Diets D17072805, 10% fat) or high-fat, high-fructose and high-cholesterol diet (NASH diet, Research Diets D17010103). After confirming NASH, the mice were randomized to receive orally […] (Beijing SL Pharmaceutical) at 0.125 or 0.5 mg/g/day, equivalent amounts of leucine (0.17 mg/g/day, Sigma-AldrichL8912), glycine (0.33 mg/g/day, Sigma-Aldrich G5417) or H2O for 12 additional weeks on NASH diet. All histological procedures were performed by the In Vivo Animal Core (IVAC) Histology Laboratory at the U-M. Technicians were blinded to experimental groups. Formalin-fixed tissues were processed through graded alcohols and cleared with xylene followed by infiltration with molten paraffin using an automated VIP5 or VIP6 tissue processor (TissueTek, Sakura-Americas). Using a Histostar Embedding Station (ThermoFisher Scientific), tissues were then sectioned on a […] rotary microtome (ThermoFisher Scientific) at 4 μm thickness and mounted on glass slides. Slides were stained for hematoxylin and eosin (H&E, ThermoFisher Scientific). For Sirius Red staining, slides were treated with 0.2 phosphomolybdic acid for 3 min and transferred to 0.1% Sirius Red saturated in picric acid (Rowley Biochemical Inc.) for 90 min, then transferred to 0.01N hydrochloric acid for 3 min. Frozen section processing was used for Oil Red O staining. Formalin-fixed liver samples were cryoprotected in 20% sucrose at 4° C. overnight, blotted, then liquid nitrogen-snap frozen in OCT compound (Tissue-Tek, Cat #4583) and stored at -80° C. until ready for cryosectioning. Prior to sectioning, frozen blocks were brought up to about -20° C., then sectioned at 5 μm on a Cryotome SME (Thermo-Shandon, Cat# 77200227). Slides were stored at -80° C. until stained. Prior to staining, liver slides were thawed to room temperature for 30 min. Slides were post-fixed in 10% Neutral Buffered Formalin for 20 min, rinsed in DDW, followed by rinsing in 60% isopropanol before being placed in working Oil Red O-isopropanol stain (Rowley Biochemical Inc., H-503-1B) for 5 min. Slides were then rinsed in 60% isopropanol followed by three changes of DDW. Then, slides were nuclear counterstained in Harris Hematoxylin and mounted in Aqua-Mount (Lerner Laboratories, Cat# 13800) aqueous mounting media. Immunohistochemical staining was performed on a […] automated immunohistochemical stainer (Biocare Medical) with blocking for endogenous peroxidases and non-specific binding, followed by detection using a horseradish peroxidase biotin-free polymer based commercial detection system, disclosure with diaminobenzidine chromogen, and nuclear counterstaining with hematoxylin. Specific to F4/80, (Bio-Rad ABD Serotec, Cat# MCA497), the rat monoclonal primary antibody (clone CI:A3-1) was diluted to 1:400 in DaVinci Diluent (Biocare Medical, Cat# PD900) and incubated for 60 min followed by detection using Rat-on-Mouse HRP-Polymer, (Biocare Medical, Cat# RT517) 2-step probe-polymer incubation for 10 and 30 min respectively. H&E staining was used to score NAFLD activity score (NAS). Steatosis was scored from 0-3 (0: <5% steatosis; 1: 5-33%; 2: 34-66%; 3: >67%). […]

In experiment [4] the test system is Apolipoprotein E-deficient (Apoe-/-) mice. The experiment can be described thus: Treatment of atherosclerosis in Western diet-fed mice with I.P. N-oleoyl leucine. The format is in vivo. To be noted: 7.5 mg/kg/d I.P., 4 weeks. As to the method: Apolipoprotein E-deficient (Apoe-′-) mice were fed a Western diet (WD) for 8 weeks. Mice were randomized to receive 7.5 mg/kg/d (I.P.) N-oleoyl leucine (C18:1-Leu) or equivalent amounts of oleic acid (C18:1) for an additional 4 weeks on the WD (n=10).

Experiment [5] deals with C57BL/6J mice fed NASH diet. The experiment can be described thus: Treatment of NASH in mice with I.P. N-oleoyl leucine. The format is in vivo. To be noted: 10 mg/kg/d I.P. As to the method: C57BL/6J mice were fed a standard diet (SD) or non-alcoholic steatohepatitis (NASH) diet for 16 weeks. After NASH confirmation, mice were randomized to receive 10 mg/kg/d (I.P.) N-oleoyl leucine (C18:1-Leu) or equivalent amounts of oleic acid (C18:1) or vehicle (EtOH) for an additional 6 weeks on the NASH diet. Control mice were fed the SD and administered vehicle.

The mark [6] stands for this setting: NASH diet, oral treatment 12 weeks.
The mark [7] stands for this setting: NASH diet, oral treatment 12 weeks, endpoint.

Consider `Cc1cccc(Nc2cc(Cl)nc(SCC(=O)O)n2)c1C` [WY-14643, reference compound], for which the “luciferase activity (PPARα activation), normalized by Renilla” value at PPARα (10 µM) is recorded as “significantly increased”.
Still for that read-out and setting: under `CCCCCCCC/C=C\CCCCCCCC(=O)NCC(=O)O` [N-oleoyl glycine] stands “significantly increased”.
Turning to `CCCCC/C=C\C/C=C\C/C=C\C/C=C\CCCC(=O)NCC(=O)O` [N-arachidonoyl glycine], the “oxygen consumption rate (OCR)” value in the experiment on HepG2 cells [1] is “significantly increased”. Moreover, in the experiment on HepG2 cells [2], the “rate of TG biosynthesis” value is “attenuated” and the “rate of TG hydrolysis” value is reported as “significantly accelerated”. On PPARα (10 µM), the “luciferase activity (PPARα activation), normalized by Renilla” value is reported as “significantly increased”.
Regarding `NCC(=O)O` [glycine], the “decrease of hepatic levels of N-oleoyl glycine, N-arachidonoyl glycine and N-oleoyl leucine in NASH” value in experiment [3] (LC-MS/MS of liver, chronic treatment) is on record as “rescued”. Moreover, in experiment [3] (setting [6]), the NASH diet-induced hepatomegaly entry is listed as “significantly reduced”, the “hepatic fibrosis (Sirius Red staining)” value was “lower”, the “hepatic inflammation (F4/80 macrophage staining)” value is recorded as “lower” and the “hepatic steatosis (histological analyses)” value was “lower”. Besides, in experiment [3] (setting [7]), the “increase in plasma levels of alanine aminotransferase (ALT)” value is reported as “attenuated” and the “increase in plasma levels of aspartate aminotransferase (AST)” value is listed as “attenuated”. For the same compound, in experiment [3] (RNA-sequencing, liver), the “suppression of hepatic expression of PPARα and its target genes in NASH” value is listed as “reversed”. For the same compound, the “luciferase activity (PPARα activation), normalized by Renilla” value at PPARα (concentrations of up to 1 mM) is given as “neither glycine or tripepetide glycine-glycine-leucine showed a significant effect”.
As for `CCCCCCCC/C=C\CCCCCCCC(=O)N[C@@H](CC(C)C)C(=O)O` [N-oleoyl leucine], the “oxygen consumption rate (OCR)” value in the experiment on HepG2 cells [1] is “significantly increased”. In addition, in the experiment with HepG2 cells [2], the “rate of TG biosynthesis” value is given as “attenuated” and the “rate of TG hydrolysis” value is listed as “only N-arachidonoyl glycine (C20:4-Gly) significantly accelerated”. For the same compound, in experiment [4] (Western diet, vs oleic acid), the body weight result is recorded as “no significant effects” and the plasma cholesterol entry is “no significant effects”. The atherosclerotic plaque area entry in experiment [4] (aortic sinus H&E, vs oleic acid) is “significantly lowers”. Further, the lesional macrophages result in experiment [4] (aortic sinus Mac-2, vs oleic acid) is reported as “significantly lowers”. Also, in experiment [5] (6 weeks, NASH diet), the body weight result is “lowers”. In experiment [5] (6 weeks, liver weight to body weight ratio), the hepatomegaly result is recorded as “significantly lowers”. Besides, the circulating liver enzymes entry in experiment [5] (6 weeks, ALT, AST, ALP at endpoint) is reported as “lowers”. In addition, the “NASH diet-induced hepatic and systemic inflammation” value in experiment [5] (6 weeks, F4/80, plasma CCL2, CCL5) is recorded as “significantly lowers”. Also, the “diet-induced NASH” value in experiment [5] (6 weeks, H&E scoring, NAS) was “significantly lowers”. Besides, the hepatic steatosis result in experiment [5] (6 weeks, Oil red O histology) is “significantly lowers”. In addition, the “NASH diet-induced hepatic fibrosis” value in experiment [5] (6 weeks, Sirius red fibrosis score) is on record as “significantly lowers”. Further, in experiment [5] (CLAMS: RER, energy expenditure, food intake, total activity), the “systemic energy balance in NASH” value is “no significant effect”. Moreover, in experiment [5] (NASH diet, NMR body composition), the adiposity result is reported as “without affecting”. Further, on PPARα (10 µM), the “luciferase activity (PPARα activation), normalized by Renilla” value is “significantly increased”.
